Experiments:
[1] = Viscosity measured using a Brookfield viscosmeter; format: physicochemical; conditions: monomer
Experimental: 1. Viscosity is measured using a Brookfield viscosmeter.
(§1) The modified Bis-GMA obtained in Example 2 and Bis-GMA were subjected to viscosity and water absorption tests.

[2] = Water absorption for a modified Bis-GMA monomer, Karl Fischer titration; format: physicochemical
Experimental: 2. Water absorption for a modified Bis-GMA monomer is measured according to Karl Fischer titration.
as §1

Row | Compound | Viscosity [1] [cp] | Water absorption [2] [mg/mm^3/week]
1 | C=C(C)C(=O)OCC(O)COc1ccc(C(C)(C)c2ccc(OCC(O)COC(=O)C(=C)C)cc2)cc1 (stereo not shown) [Bis-GMA, 2,2-bis[4-(2-hydroxyl-3-methacryloyloxy)phenyl] propane] | 458400 | 35
2 | C=C(C)C(=O)OCC(COc1ccc(C(C)(C)c2ccc(OCC(COC(=O)C(=C)C)O[Si](CC)(CC)CC)cc2)cc1)O[Si](CC)(CC)CC (stereo not shown) [Example 2] | 440 | 7.4

Reference: patent publication US20090215921A1, “MODIFIED DIMETHYLACRYLATE MONOMER, METHOD FOR PREPARING THE SAME, AND POLYMERIC DENTAL COMPOSITE” (priority 2008, published 2009)
